{
  "source": "paper PMC5508536",
  "about": "(Bioorganic & medicinal chemistry letters, 2017)",
  "key": {"[1]": {"settings": "cited from earlier work"}, "[2]": {"settings": "rat; cited from earlier work"}, "rat M5": {"molecular_target": "T1, rat M5 (Rattus norvegicus, UniProt P08911)", "T1 sequence (P08911 1-531)": "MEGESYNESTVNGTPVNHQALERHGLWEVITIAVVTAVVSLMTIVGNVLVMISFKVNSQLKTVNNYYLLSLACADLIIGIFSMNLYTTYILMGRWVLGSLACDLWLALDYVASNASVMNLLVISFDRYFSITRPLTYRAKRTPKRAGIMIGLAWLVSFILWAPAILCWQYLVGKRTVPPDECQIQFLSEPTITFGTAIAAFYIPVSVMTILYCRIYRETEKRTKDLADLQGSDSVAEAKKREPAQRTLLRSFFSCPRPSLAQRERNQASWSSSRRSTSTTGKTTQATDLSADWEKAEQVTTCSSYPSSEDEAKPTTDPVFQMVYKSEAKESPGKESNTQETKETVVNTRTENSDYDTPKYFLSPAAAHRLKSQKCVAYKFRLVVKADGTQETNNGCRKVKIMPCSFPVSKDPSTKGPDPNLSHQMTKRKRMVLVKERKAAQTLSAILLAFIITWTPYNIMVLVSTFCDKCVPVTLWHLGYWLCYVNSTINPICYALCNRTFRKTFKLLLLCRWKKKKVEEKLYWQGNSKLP", "test": "rat M5 intracellular calcium mobilization assay", "type": "cell-based"}},
  "data": [
    {"smiles": "O=C(c1ccc(F)c(F)c1)N1CCN2C(=O)c3ccccc3[C@@]12c1ccc(Cl)cc1", "note": "[compound 1]", "values": [
      {"measurement": "elimination half-life t1/2", "setting": "[1]; rat", "value": 80, "unit": "h"}
    ]},
    {"smiles": "COc1ccc([C@@]23c4ccccc4C(=O)N2CCN3C(=O)c2cc(F)c(F)c(F)c2)cc1C", "note": "[compound 2]", "values": [
      {"measurement": "CLp", "setting": "[1]; rat PK", "value": "> 70", "unit": "mL/min/kg"},
      {"measurement": "CNS penetration", "setting": "[2]", "value": "limited CNS penetration"}
    ]},
    {"smiles": "O=C(c1ccc(F)c(F)c1)N1CCN2C(=O)c3ccccc3[C@@]12c1ccc(N2CCCC(F)(F)C2)cc1", "note": "[4d]", "values": [
      {"measurement": "rat M5 potency relative to hM5", "setting": "rat M5", "value": "≤ 2", "unit": "fold"}
    ]},
    {"smiles": "O=C(c1ccc(F)c(F)c1)N1CCN2C(=O)c3ccccc3[C@@]12c1ccc(N2CCC(F)(F)CC2)cc1", "note": "[4f]", "values": [
      {"measurement": "rat M5 potency relative to hM5", "setting": "rat M5", "value": "≤ 2", "unit": "fold"}
    ]}
  ]
}
